One data set concerns P388 leukemia. In words: in vivo ip P388 leukemia mouse model. The settings on record: positive control, 1 mg/kg/day. Also noted: species or system B6D2F1 mice. The source says: P388 lymphocytic leukemia is currently the most widely used animal tumor model for screening for antitumor agents and for detailed evaluation of active compounds. This tumor system is widely accepted as an antitumor agent screening tool because it is sensitive to virtually all of the clinically active antineoplastic agents; quantitative and reproducible: amenable for large-scale screening; and predictive for activity in other animal tumor models. […] Rpts. (Part III), 3, 1-103 (1972)]: • 10^6 P388 leukemia cells are inoculated ip in B6D2F1 mice. Twenty-four hours later, if the tumor inoculum proves to be free of bacterial contamination (as determined by 24 hours incubation in thioglycollate broth), animals are randomized into groups of 6 and housed in shoebox cages. The purified active component of ATCC 53270 was dissolved in 0.9 percent NaCl solution (normal saline) at an appropriate concentration so that the desired dose was delivered in a volume of 0.5 ml. The crude broth of ATCC 53270 was administered undiluted or diluted with normal saline. Such saline solutions were stored in amber bottles at 4°C. The saline solution of the purified active component of ATCC 53270, saline solution of the crude broth of ATCC 53270 or undiluted crude broth of ATCC 53270 are administered ip on Days 1 through 5 (i.e. treatment is initiated 24 hrs after tumor inoculation). […] Animals are weighed as a group on Days 1, 5 and 9 and average weight change (δ wt.) is used as a reflection of toxicity. Each experiment also includes an inoculum titration -- groups of 8 mice inoculated ip with 10^5 to 10^0 P388 leukemia cells. The titration is used to calculate cell kill achieved by treatment with drugs. Animals are monitored daily for mortality and experiments are terminated after 45 days. The endpoint is median survival time (MST) and increase in lifespan (ILS) which is the percentage of increase in MST relative to untreated controls. Untreated controls inoculated ip with 10^6 P388 leukemia cells generally survive for a median of 9 to 11 days. A drug is considered active if it produces > 25 percent ILS.

A further data set relates to ADJ-PC6 Plasmacytoma. Put plainly: in vivo ADJ-PC6 Plasmacytoma tumor model. Set-up: species or system BALB/c female mice. As for the experimental part:
Likewise, AAC-345, in the form of the crude broth of ATCC 53270 and the purified active component of ATCC 53270, was tested in an additional in vivo tumor model known as ADJ-PC6 Plasmacytoma according to the following assay [see Cleare et al., J. Biochimie, 60, 830-850 (1978)]: • Tumor cells are carried by serial sc passage in BALB/c female mice and then collected aseptically on ca. Day 21 and minced in Hank's balanced salt solution. The cells are then dispersed by homogenizer, and cell concentration is adjusted to 4×10^6 viable (trypan blue-excluding) cells per ml by hemocytometer counts. A total of 0.5 ml (2x10^6 cells) is implanted sc on the right flank of BALB/c female mice in groups of 8. Treatment is given ip on Days 1-10, and tumors are measured in perpendicular diameters with a vernier caliper approximately three (3) weeks after tumor implantation (Days 18-21). Generally, > 75% inhibition of tumor growth reflects significant antitumor effect.

SMILES strings stand for the structures.

As for `N.N.[Cl][Pt][Cl]` [Cisplatin], in the data set on P388 leukemia (Experiment I), the “ILS (increase in lifespan)” value was 117%, the “Median Survival Time” value was found to be 19.5 days, the “Weight Change Day 5” value is -0.2 gm and the “Weight Change Day 9” value was “+1.4 gm”. Besides, in the data set with P388 leukemia (Experiment II), the “ILS (increase in lifespan)” value came out at 89%, the “Median Survival Time” value is on record as 17 days, the “Weight Change Day 5” value is -0.6 gm and the “Weight Change Day 9” value is given as “+1.2 gm”. The “TGI (percent of tumor growth inhibition)” value in the data set on ADJ-PC6 Plasmacytoma (Experiment I, 3 mg/kg/day ip Days 1-10, Day 21) amounted to 100%. For the same compound, in the data set with ADJ-PC6 Plasmacytoma (Experiment I, 3 mg/kg/day ip Days 1-10, measured Day 21), the “Mean Tumor Volume” value was 0 ± 0 mm^3. Further, the tumor growth inhibition entry with ADJ-PC6 Plasmacytoma (positive control, general statement in the method) is “complete tumor growth inhibition”.

For the origin of these results see patent EP0217621A2, “Macromolecular tumor cell growth-inhibiting antibiotic” (SMITHKLINE BECKMAN CORPORATION, priority 1985, dated 1987).
